Laboratory results from patent publication US20250250261A1, “NOVEL SUBSTITUTED FLUORINATED VINYL-N-PROPYL-PYRROLIDINE COMPOUNDS, PROCESSES FOR THEIR PREPARATION AND THERAPEUTIC USES THEREOF” (SANOFI, priority 2022, published 2025).

Target: T1, ERα (Homo sapiens, UniProt P03372)
T1 construct: host or cells: MCF7
T1 sequence (P03372 1-595): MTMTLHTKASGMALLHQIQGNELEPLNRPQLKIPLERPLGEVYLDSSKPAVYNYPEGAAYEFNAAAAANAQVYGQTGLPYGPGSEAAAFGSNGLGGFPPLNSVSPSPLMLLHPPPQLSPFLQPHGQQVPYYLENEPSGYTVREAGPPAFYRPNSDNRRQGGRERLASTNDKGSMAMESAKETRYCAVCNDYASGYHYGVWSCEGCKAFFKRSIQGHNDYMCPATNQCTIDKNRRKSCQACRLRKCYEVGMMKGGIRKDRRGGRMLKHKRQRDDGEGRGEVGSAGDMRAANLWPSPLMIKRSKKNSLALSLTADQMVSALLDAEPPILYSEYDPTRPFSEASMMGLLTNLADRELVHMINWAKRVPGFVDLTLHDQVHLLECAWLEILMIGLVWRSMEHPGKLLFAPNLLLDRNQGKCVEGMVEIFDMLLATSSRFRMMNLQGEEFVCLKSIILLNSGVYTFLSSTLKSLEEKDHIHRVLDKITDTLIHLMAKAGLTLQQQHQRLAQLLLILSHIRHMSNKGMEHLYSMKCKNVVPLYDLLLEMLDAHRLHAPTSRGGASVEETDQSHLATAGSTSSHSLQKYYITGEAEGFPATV
Test: Estrogen receptor degradation activity: breast cancer cell ERα in cell western assay (MCF7 cells)
Type: cell-based
Conditions: 4 hours, % of ERα levels decrease relative to fulvestrant (0.1 μM) and DMSO
Procedure: Test: Estrogen Receptor Degradation Activity
Said test involves measuring the in vitro degradation activity of the compounds of the Table 1a.
The measurements of the degradation activities were made using a breast cancer cell ERα in cell western assay as described hereunder.
MCF7 cells (ATCC) were seeded in 384 wells microplate (collagen coated) at a concentration of 10000 cells/30 μL per well in red phenol free MEM alpha medium (invitrogen) containing 5% charcoal dextran striped FBS. The following day, 9 points serial 1:5 dilution of each compound was added to the cells in 2.5 μL at final concentrations ranging from 0.3-0.0000018 μM (in table 2), or 0.1 μM for fulvestrant (using as positive control). At 4 hours post compound addition the cells were fixed by adding 25 μL of formalin (final concentration 5% formalin containing 0.1% triton) for 10 minutes at room temperature and then washed twice with PBS. Then, 50 μL of LI-COR blocking buffer containing 0.1% Triton was added to plate for 30 minutes at room temperature. LI-COR blocking buffer was removed and cells were incubated overnight at cold room with 50 μL anti-ER rabbit monoclonal antibody (Thermo scientific MA1-39540) diluted at 1:1000 in LI-COR blocking buffer containing 0.1% tween-20. Wells which were treated with blocking buffer but no antibody were used as background control. Wells were washed twice with PBS (0.1% tween-20) and incubated at 37° C. for 60 minutes in LI-COR (0.1% tween-20) containing goat anti-rabbit antibody Alexa 488 (1:1000) and Syto-64 a DNA dye (2 μM final concentration). Cells were then washed 3 times in PBS and scanned in ACUMEN explorer (TTP-Labtech). Integrated intensities in the green fluorescence and red fluorescence were measured to determine the levels of ERα and DNA respectively.
The degradation activity with respect to estrogen receptors in this test is given by the concentration which degrades 50% of the estrogen receptor (or IC50) in nM.
The % of ERα levels decrease were determined as follows: % inhibition=100*(1−(sample−fulvestrant:DMSO−fulvestrant)).

Row | % Degradation At 0.3 μM | SMILES
1 | 91% | O=C(O)c1ccc2c(c1)CCCC(c1cccc(C(F)(F)F)c1)=C2c1ccc(/C=C2/CCN(CCCF)C2)cc1 [Compound 25, (Z)-9-(4-((1-(3-fluoropropyl)pyrrolidin-3-ylidene)methyl)phenyl)-8-(3-(trifluoromethyl)phenyl)-6,7-dihydro-5H-benzo[7]annulene-3-carboxylic acid]
2 | 92% | O=C(O)c1ccc2c(c1)CCCC(c1ccc(C(F)(F)F)cc1)=C2c1ccc(/C=C2/CCN(CCCF)C2)cc1 [Compound 26, (Z)-9-(4-((1-(3-fluoropropyl)pyrrolidin-3-ylidene)methyl)phenyl)-8-(4-(trifluoromethyl)phenyl)-6,7-dihydro-5H-benzo[7]annulene-3-carboxylic acid]
3 | 93% | O=C(O)c1ccc2c(c1)CCCC(c1cccc(Cl)c1)=C2c1ccc(/C=C2/CCN(CCCF)C2)cc1 [Compound 27, (Z)-8-(3-chlorophenyl)-9-(4-((1-(3-fluoropropyl)pyrrolidin-3-ylidene)methyl)phenyl)-6,7-dihydro-5H-benzo[7]annulene-3-carboxylic acid]

The next lines start with the molecule.

Row | SMILES | % Degradation At 0.3 μM
4 | O=C(O)c1ccc2c(c1)CCCC(c1ccccc1C(F)(F)F)=C2c1ccc(/C=C2/CCN(CCCF)C2)cc1 [Compound 22, (Z)-9-(4-((1-(3-fluoropropyl)pyrrolidin-3-ylidene)methyl)phenyl)-8-(2-(trifluoromethyl)phenyl)-6,7-dihydro-5H-benzo[7]annulene-3-carboxylic acid] | 89%
5 | O=C(O)c1ccc2c(c1)CCCC(c1ccc(Cl)cc1Cl)=C2c1ccc(/C=C2/CCN(CCCF)C2)c(F)c1 [Compound 23, (Z)-8-(2,4-dichlorophenyl)-9-(3-fluoro-4-((1-(3-fluoropropyl)pyrrolidin-3-ylidene)methyl)phenyl)-6,7-dihydro-5H-benzo[7]annulene-3-carboxylic acid] | 96%
6 | Cl.O=C(O)c1ccc2c(c1)CCC(c1ccc(Cl)cc1Cl)=C2c1ccc(/C=C2/CCN(CCCF)C2)cc1 [Compound 24, (Z)-6-(2,4-dichlorophenyl)-5-(4-((1-(3-fluoropropyl)pyrrolidin-3-ylidene)methyl)phenyl)-7,8-dihydronaphthalene-2-carboxylic acid hydrochloride] | 91%
7 | O=C(O)c1ccc2c(c1)CCCC(c1ccc(Cl)cc1)=C2c1ccc(/C=C2/CCN(CCCF)C2)cc1 [Compound 28, (Z)-8-(4-chlorophenyl)-9-(4-((1-(3-fluoropropyl)pyrrolidin-3-ylidene)methyl)phenyl)-6,7-dihydro-5H-benzo[7]annulene-3-carboxylic acid] | 93%
8 | Cc1cc(C2=C(c3ccc(/C=C4/CCN(CCCF)C4)cc3)c3ccc(C(=O)O)cc3CCC2)c(C)cc1F [Compound 29, (Z)-8-(4-fluoro-2,5-dimethylphenyl)-9-(4-((1-(3-fluoropropyl)pyrrolidin-3-ylidene)methyl)phenyl)-6,7-dihydro-5H-benzo[7]annulene-3-carboxylic acid] | 92%
9 | Oc1ccc2c(c1)SCCC(c1ccc(Cl)cc1Cl)=C2c1ccc(/C=C2/CCN(CCCF)C2)cc1 [Compound 30, (Z)-4-(2,4-dichlorophenyl)-5-(4-((1-(3-fluoropropyl)pyrrolidin-3-ylidene)methyl)phenyl)-2,3-dihydrobenzo[b]thiepin-8-ol] | 90%
